Assay results from article PMC7566913, “Dual Gene Delivery Reagents From Antiproliferative Alkylphospholipids for Combined Antitumor Therapy” (Frontiers in Chemistry, 2020).

Key:
H292 cells [1] = assay: Antiproliferative effect of pUNO1-hTRAIL vs pCMV-Gluc lipoplexes, MTT, H292; format: cell-based, human; settings: N/P 3, 1 eq. DOPE
Experimental: Cells were treated with lipoplexes prepared from pro-APLs ME12, PE12, and EE12, with increasing dose of pDNA (0.1–0.4 μg per well). The gold standard gene delivery reagent Lipofectamine® 2000 was assayed in parallel for comparison purpose. In order to distinguish the intrinsic cytotoxic effect of the in situ generated APLs from that resulting from TRAIL expression, pCMV-Gluc was assayed in parallel to pUNO1-hTRAIL. Using pCMV-Gluc, the observed cytotoxicity was assumed to result only from the APL antiproliferative activity, whereas results obtained with pUNO1-hTRAIL are a combination of TRAIL activity and APL antiproliferative effect. […] Though the temptation is to take it as an indicator that functional TRAIL was produced, the difference found was not always statistically significant. The activity profile of the three pro-APLs varied according to the cell line. […]
Figure 8 Antiproliferative effect of lipoplexes prepared from ME12 (A), PE12 (B), EE12 (C), and the two DNA plasmids pCMV-Gluc (light bars) and pUNO1-hTRAIL (dark bars), on the three cell lines. […] Lipofectamine®-based lipoplexes (0.1 μg plasmid/well) were prepared according to the optimized experimental conditions determined following the supplier's instructions. Cell viability was measured by the MTT assay. Basal mitochondrial activity measured in untreated cells is set at 100%. […]

H292 cells [2] = assay: Cytotoxicity, MTT assay, H292; format: cell-based, human; settings: Homo sapiens, NCI-H292, H292, 24 h at 37°C
Experimental: The cells were exposed for a 24-h period to increasing concentration of the pro-APLs, ranging from 500 nM to 1 mM, and cell viability was assessed using the MTT colorimetric assay (Mosmann, [1983]). For the three cell lines, viability decreased in a dose-dependent manner in response to APLs and pro-APLs (Supplementary Figures 2–4). Using the best-fit regression curve method, the IC50 value (concentration that provokes 50% inhibition of the cell growth) was calculated for each compound (Table 4). The three cell lines responded to the compounds with varying sensitivities. […] This is attributed to enzyme-mediated hydrolysis of the pro-APL compounds in the complemented culture medium or in the intracellular compartment, competing with pure pH-controlled chemical hydrolysis. According to its structure, a pro-APL may or not be a substrate for specific lipases and, thus, may or not be hydrolyzed into the parent cytotoxic compound. […]
At confluency, cells were released […]
Cells were seeded into 96-well plates (Becton-Dickinson) at the required density (vide supra) in 100 µL of serum containing culture medium. […]
Mitochondrial activity measurements (MTT assay) was used to assess cytotoxicity of the compounds.
Lipid samples were prepared from a lipid film (3.6 µmol of compound evaporated from an ethanolic solution) hydrated with aqueous glucose 5 % and vigorously vortexed for 20 s before serial dilution in aqueous glucose 5 %. For addition of lipid samples to cell culture, part of the culture medium in the culture plates prepared the day before (25 µL) was removed and replaced by lipid samples (25 µL). Negative control was obtained by adding glucose 5 % to the cells instead of lipoplexes.
After a 24-h incubation period at 37 °C, culture supernatant was removed, cells were carefully washed with PBS and MTT (100 µL, 0.5 mg/mL) in complete culture medium was added. After a 1-h incubation period at 37 °C, the MTT sol ution was removed and DMSO (100 µL) was added to lyse cells and dissolve reduced MTT. Intensity of MTT reduction was then evaluated by measuring absorbance at 492 nm. Viability of cells treated with lipids or lipoplexes was expressed as the percentage of the absorbance measured in untreated cells. Value for each sample is the mean of triplicate determinations (± SD). IC50 values were determined within the 95 % confidence interval using nonlinear regression analysis with the GraphPad Prism software (GraphPad Software, San […]
All data are representative of a triplicate determination and are presented as the mean ± SD.
Statistical significance between treatments was assessed by one-way analysis of variance (ANOVA) followed by the Dunnett multiple comparison test, using the Kaleidagraph 4.5 software (Synergy Software, Reading, PA, USA). Data were considered as statistically significant for p value less than

SMILES: CCCCCCCCCCCCCCCCCCOP(=O)(OCOC(=O)CCCCCCCCCCC)OC1CC[N+](C)(C)CC1.[Cl-] (centres unmarked) [PE12, 4-((((Dodecanoyloxy)methoxy)(octadecyloxy)phosphoryl)oxy)-1,1-dimethylpiperidin-1-ium chloride]
- Cell death specifically induced by TRAIL (H292 cells [1]): ca. 45%
- IC50 (H292 cells [2]): 168 ± 7 µM
